Test results published in patent US4127446A, “Process for producing antibiotics mimosamycin and chlorocarcins A, B and C” (priority 1975, dated 1978).
Converted amounts (≈) assume the structure as drawn.

Tested on: Mycobacterium tuberculosis SMR
Test: Antimicrobial activity of mimosamycin against tubercle bacilli (Table 4)
Assay type: cell-based
Conditions: 672 h

Q: COC1=C(C)C(=O)c2cc(=O)n(C)cc2C1=O [Mimosamycin] was tested. Which MIC did it give?
A: 1.56 µg/mL (≈ 6.69 µM)
